Assay results as given in patent publication US5373089A, “Oxytocin antagonist” (Northwestern University, priority 1993, dated 1994).
Starred links: 1 amine or outer side, 2 acyl side, 3 side chain; linkers in the order of their positions; H or OH if unused. Positions of bridges follow the written chain, without caps; N, C: chain ends. Non-standard residues stand in square brackets, D forms with d. Residues, ends and D or L forms follow the SMILES beside them. X1 = O=C(CC1(S[*:2])CCCCC1)[*:1]; Pen = CC(C)(S)[C@H](N)C(=O)O; Orn = NCCC[C@H](N)C(=O)O; Mpa = O=C(O)CCS

How the values were obtained:
oxytocin = details: reported in the cited literature; cited from earlier work
ADH = ADH bioassay (alteration in urine output due to ADH); type: in vivo; details: in vivo
Procedure: The above compound was also tested for antagonism to vasopressin. Anti-ADH activity can be determined by measuring the alteration in urine output due to ADH in the presence and absence of the antagonist. A suitable ADH-assay is described in Sawyer, et al., Endocrinology, 63:694 (1958). […] The ratio of oxytocin antagonism to ADH antagonism was very high, viz. over 1, 866, as compared with 200 for the compositions disclosed in the parent applications.
The anti-ADH activity is measured by the alteration in urine […] in the presence and absence of the antagonist to determine the specificity of the antagonist. The anti-ADH assay is described in Sawyer, et al., Endocrinology, 63:694 (1958).

RAT OXYTOCIN RECEPTOR = biological target: T1, RAT OXYTOCIN RECEPTOR (Rattus norvegicus, UniProt P70536); assay: Oxytocin receptor assay, pregnant rat uterus (P21) membranes, 3H-OT competition; type: binding
T1 construct: from tissue; host or cells: uterus of day-21 pregnant Holtzman rats, sucrose-gradient membrane fraction
T1 sequence (P70536 1-388): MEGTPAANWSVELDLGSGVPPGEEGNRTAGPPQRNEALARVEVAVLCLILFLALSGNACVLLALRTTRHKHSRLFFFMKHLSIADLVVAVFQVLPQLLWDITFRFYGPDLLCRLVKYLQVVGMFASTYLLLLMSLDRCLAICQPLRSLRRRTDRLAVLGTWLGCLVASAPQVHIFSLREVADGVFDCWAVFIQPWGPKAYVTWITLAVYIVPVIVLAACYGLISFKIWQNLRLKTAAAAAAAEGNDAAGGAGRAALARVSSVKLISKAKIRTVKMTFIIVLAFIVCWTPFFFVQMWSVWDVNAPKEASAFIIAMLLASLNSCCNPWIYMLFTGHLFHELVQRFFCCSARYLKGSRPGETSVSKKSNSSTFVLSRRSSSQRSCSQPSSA
Procedure: Uterine tissue was removed on day 21 of pregnancy (delivery=Days 211/2 to 221/2) from Holtzman rats. The tissue was emptied of its contents, rinsed in ice cold buffer, cut into small pieces and frozen at -70° C. until homogenization.
(§1) Oxytocin receptors (OTrs) reside on the cell membrane and are present at high concentrations at the end of pregnancy in uterine tissue. Frozen tissue is homogenized in Tris buffer, the homogenate filtered, and the filtrate centrifuged at 1000 g for 15 minutes at 4° C. The supernatant is centrifuged at 40,000 g for 30 minutes and the pellet containing the cell membranes resuspended in 10% sucrose. Density gradient ultracentrifugation is then performed by placing the 10 % sucrose suspension on top of 35% sucrose and centrifuging for 30 minutes in a swing bucket rotor at 105,000 g. The membranes at the interface of the 10%/35% sucrose are removed and resuspended in Tris buffer containing EDTA for 30 minutes. This procedure removes divalent cation and results in dissociation of any endogenously bound OT to the receptor. This mixture is then centrifuged for 15 minutes at 100,000 g and the pellet containing the membrane OTrs resuspended in Tris, PMSF, Mg^++, buffer by sonication.
(§2) The binding assay consist of 0.1 ml of 20,000 cmp of tritium labeled OT (New England Nuclear, […]), 0.1 ml of OT antagonist added at increasing concentration, 0.25 ml of buffer and 0.05 ml of membrane (70-150 ug protein). A nonspecific tube has 100× of cold OTA added to it. The incubation is for 30 minutes at 30 ° C. The membrane is pelleted by centrifugation in ultraclear mini tubes (5×41 mm) for 30 minutes at 105,000 g. The resulting pellet containing the bound ^3 H-OT is dissolved in 0.1N NaOH at 45 ° C. for 30 minutes and this mixture is then placed in liquid scintillation counting fluid and counted for dpms in a scintillation counter.
(§3) The data is analyzed by nonlinear curve fitting methods using McPherson's EBDA (J Pharmacol Methods 14:213-228, 1985) and Munson and Rodbard's LIGAND (Anal Biochem 107:220-239, 1980) program for saturation and competition analysis for determining Kds and Kis.

HUMAN OXYTOCIN RECEPTOR = biological target: T2, HUMAN OXYTOCIN RECEPTOR (Homo sapiens, UniProt P30559); assay: Oxytocin receptor assay, human myometrial tissue membranes, 3H-OT competition; type: binding
T2 construct: Oxytocin receptors (OTrs) reside on the cell membrane and are present at high concentrations at the end of pregnancy in uterine tissue; from tissue; host or cells: human myometrium from cesarean section patients, sucrose-gradient membrane fraction
T2 sequence (P30559 1-389): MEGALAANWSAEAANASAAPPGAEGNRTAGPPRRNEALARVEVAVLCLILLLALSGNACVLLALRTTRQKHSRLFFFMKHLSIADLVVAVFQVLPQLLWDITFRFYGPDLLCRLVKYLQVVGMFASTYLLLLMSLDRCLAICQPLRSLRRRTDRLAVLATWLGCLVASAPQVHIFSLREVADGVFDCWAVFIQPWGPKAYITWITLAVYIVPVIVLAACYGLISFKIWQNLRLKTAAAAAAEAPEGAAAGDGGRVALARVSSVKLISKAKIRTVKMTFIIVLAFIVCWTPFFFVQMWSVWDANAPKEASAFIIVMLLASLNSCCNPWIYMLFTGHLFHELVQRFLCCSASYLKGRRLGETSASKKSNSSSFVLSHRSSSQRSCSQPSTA
Procedure: Human myometrial tissue was collected from patients at the time of cesarian section after informed consent. The tissue was rinsed in cold buffer, cut into small pieces and frozen at -70° C. until homogenization.
as §1, §2, §3

ESTROUS RAT UTERUS = assay: Oxytocic bioassay (isolated rat uterus, integrated contraction response to oxytocin); type: cell-based
Description: The protocol used for the oxytocin bioassay procedure is derived from procedures described in a paper by Sawyer, et al., Endocrinology, 106:81 (1980), which in turn was based on reports of Munsick, Brit. J. Pharmacol., 3:328 (1960), and Holton, Brit. J. Pharmacol., 3:328 (1948). The assay calculations for the pA2 estimates are described by Schild, British J. Pharmacology, 2:189 (1947). The major difference in the present procedure from those reported by others in the field is that the area under the contraction is integrated where most other techniques calculate the amplitude. Integration provides much more consistent and reliable results although the pA2 estimates are approximately an order of magnitude lower than those reported using amplitude of the contraction as the endpoint.
1. Animals--a 1.5 cm piece of uterus from a virgin rat (Holtzman) in natural estrus is used for the assay.
2. Buffer/Assay Bath--The buffer used is Munsicks. […] The buffer is gassed continuously with 95% oxygen; 5% carbon dioxide giving a pH of 7.4. The temperature of the assay bath is 37° C. A 10 ml assay bath is used that contains a water jacket for maintaining the temperature and inlet and outlet spikets for adding and removing buffer.
3. Polygraph/transducer--The piece of uterine tissue used for the assay is anchored at one end and connected to a Statham Strain Gauge Force Transducer at the other end which in turn is attached to a Grass Polygraph Model 79 for monitoring the contractions.
4. Assay Protocol. (a) The tissue is equilibrated in the assay bath for one hour with washing with new buffer every fifteen minutes. One gram of tension is kept on the tissue at all times.
(b) The tissue is stimulated initially with oxytocin at 10 nM to "acclimate" the tissue and with […] KCl to determine the maximum contractile response.
(d) The tissue is exposed to oxytocin (Calbiochemical, San Diego, Calif.) for one minute and washed out. There is a three minute interval before addition of the next dose of the agonist or antagonist. When the antagonist is tested, it is given five minutes before the agonist. The agonist is given for one minute. All responses are integrated using a 7P10 Grass Integrator. This is the major difference between the present protocol and others in the literature which usually measure amplitude of the contractions as the response. A single concentration of oxytocin, equal to 80% of the maximum response, is used to test the antagonist. […] This is repeated three times for each dose of antagonist for a three point assay.
(e) Calculations for pA2 : The dose-response (DR) ratios are calculated for antagonist and a Schild's Plot is performed by plotting the Log (DR-1) vs. Log of antagonist concentration. The line plotted is calculated by least squares regression analysis. The pA2 is the concentration of antagonist at the point where the regression line crosses the 0 point of the Log (DR-1) ordinate. The pA2 is the negative Log of the concentration of antagonist that will reduce the response to the agonist by one-half.
The protocol used for the oxytocin bioassay procedure is derived from procedures described in a paper by Sawyer, et al., Endocrinology, 106:81 (1980), which in turn was based on reports of Munsick, Brit. J. Pharmacol., 3:328 (1960), and Holton, Brit. J. Pharmacol., 3:328 (1948). The assay calculations for the pA2 estimates are described by Schild, Brit. J. Pharmacol. (1947). The major difference in procedure from those previously reported was the integration of the area under the contraction instead of merely calculating the amplitude. Integration provides more consistent and reliable results, although the pA2 estimates are about an order of magnitude lower than those reported using amplitude of the contraction as the endpoint.
A 1.5 cm piece of uterus from a virgin rat (Holtzman) in natural estrus is used for the assay.
The buffer used is Munsick's. […]

## 1deamino[D-Tyr(OEt)^2, Thr^4, Orn^8 ] vasopressin
oxytocin
  pA2 (anti-oxytocic, literature): 8.3

## 1-deamino, ethyloxytocin
oxytocin
  pA2 (anti-oxytocic, literature): 7.2

## CC[C@H](C)[C@@H]1NC(=O)[C@@H](Cc2c[nH]c3ccccc23)NC(=O)CC2(CCCCC2)SSC[C@@H](C(=O)N2CCC[C@H]2C(=O)N[C@@H](CCCNC(=N)N)C(=O)NCC(N)=O)NC(=O)[C@H](CC(N)=O)NC(=O)[C@H](CCC(N)=O)NC1=O [Compound C, [Pmp^1, D-Trp^2, Arg^8] oxytocin] ([dW]IQNCPRG-NH2; linker N-5 via X1)
ADH
  ADH Bioassay pA2: 5.51
RAT OXYTOCIN RECEPTOR
  Kd: 4.93 nM
HUMAN OXYTOCIN RECEPTOR
  Kd: 5.49 nM

## CCOc1ccc(C[C@H]2NC(=O)CCSSC[C@@H](C(=O)N3CCC[C@H]3C(=O)N[C@@H](CCCN)C(=O)NCC(N)=O)NC(=O)[C@H](CC(N)=O)NC(=O)[C@H]([C@@H](C)O)NC(=O)[C@H]([C@@H](C)CC)NC2=O)cc1 [E, [Mpa^1,DTyr(Et)^2,Thr^4, Orn^8] oxytocin, reference compound] ([Mpa][dY](Et)ITNCP[Orn]G-NH2; disulfide 1-6)
ESTROUS RAT UTERUS; estrous rat uterus, Table 3
  OXYTOCIC BIOASSAY ED50: 102.33 nM
ESTROUS RAT UTERUS; estrous rat uterus, Table 4
  BIOASSAY ED50: 102.3 nM
ESTROUS RAT UTERUS; ratio to ANTAG I, rat oxytocic bioassay
  BIOASSAY (ANTI/OTA): 0.3
RAT OXYTOCIN RECEPTOR
  Kd: 19.6 nM
RAT OXYTOCIN RECEPTOR; ratio of binding affinity to ANTAG I, rat oxytocin receptor
  rOTr (OTA/ANTI): 0.4
HUMAN OXYTOCIN RECEPTOR
  Kd: 18.9 nM
HUMAN OXYTOCIN RECEPTOR; ratio of binding affinity to ANTAG I, human oxytocin receptor
  hOTR (OTA/ANTI): 1.0

## (1-deaminopenicillamine, 2-0-methyltyrosine) oxytocin
oxytocin
  pA2 (anti-oxytocic, literature): 7.8

## CC[C@H](C)[C@@H]1NC(=O)[C@H](Cc2ccccc2)NC(=O)[C@@H](Cc2ccccc2)NC(=O)CC2(CCCCC2)SSC[C@@H](C(=O)N2CCC[C@H]2C(=O)N[C@@H](CCCNC(=N)N)C(=O)NCC(N)=O)NC(=O)[C@H](CC(N)=O)NC1=O [Compound A, [Pmp^1,D-Phe^2,Phe^3,Ile^4,Arg^8] oxytocin, reference compound] ([dF]FINCPRG-NH2; linker N-5 via X1)
ESTROUS RAT UTERUS; virgin rat uterus in natural estrus, Munsick's buffer 0.5 mM Mg++, integrated contraction area
  Oxytocic Bioassay pA2: 7.35
ADH
  ADH Bioassay pA2: 7.66

## CC[C@H](C)[C@@H]1NC(=O)[C@@H](Cc2c[nH]c3ccccc23)NC(=O)CC2(CCCCC2)SSC(C)(C)[C@@H](C(=O)N2CCC[C@H]2C(=O)N[C@@H](CCCNC(=N)N)C(=O)NCC(N)=O)NC(=O)[C@H](CC(N)=O)NC(=O)[C@H](CCC(N)=O)NC1=O [Compound C2, [Pmp^1, DTrp^2, Pen^6, Arg^8] oxytocin] ([dW]IQN[Pen]PRG-NH2; linker N-5 via X1)
RAT OXYTOCIN RECEPTOR
  Kd: 0.87 nM
